Test results published in ChEMBL document CHEMBL4130359, “Indazole-based ligands for estrogen-related receptor α as potential anti-diabetic agents” (Eur J Med Chem, 2017).

Tests used:
Rattus norvegicus [1] = assay: Effect on NDUFS1 gene expression in epididymal white adipose tissue of Zucker rat sub-chronic fa/fa prediabetic model at 10 mg/kg, po qd for 15 days by microarray analysis relative to control; assay type: functional
Rattus norvegicus [2] = assay: Effect on SDHD gene expression in epididymal white adipose tissue of Zucker rat sub-chronic fa/fa prediabetic model at 10 mg/kg, po qd for 15 days by microarray analysis relative to control; assay type: functional
Rattus norvegicus [3] = assay: Antidiabetic activity in Zucker rat sub-chronic fa/fa prediabetic model assessed as blood insulin AUC (0 to 120 min) at 1 mg/kg, po qd for 31 days measured on day 29 post dose (reference value: 1503 +/- 160 ug.min/L); assay type: functional, organism-based; set-up: time < 2 hr, dose 1 mg/kg
Rattus norvegicus [4] = assay: Effect on BAD gene expression in epididymal white adipose tissue of Zucker rat sub-chronic fa/fa prediabetic model at 10 mg/kg, po qd for 15 days by microarray analysis relative to control; assay type: functional
Rattus norvegicus [5] = assay: Effect on CPT2 gene expression in epididymal white adipose tissue of Zucker rat sub-chronic fa/fa prediabetic model at 10 mg/kg, po qd for 15 days by microarray analysis relative to control; assay type: functional
Rattus norvegicus [6] = assay: Toxicity in […] chronic ob/ob model assessed as serum triglyceride level at 10 mg/kg, po qd for 31 days measured on day 32 (reference value: 329 +/- 36 mg/dl); assay type: organism-based; details: in vivo, 744 h
Rattus norvegicus [7] = assay type: functional, Zucker
Rattus norvegicus [8] = assay: Toxicity in Zucker rat sub-chronic fa/fa prediabetic model assessed as serum ALT level at 1 mg/kg, po qd for 31 days measured on day 32 (reference value: 151 +/- 23 U/L); assay type: organism-based; details: in vivo, 744 h
Rattus norvegicus [9] = assay: Toxicity in Zucker rat sub-chronic fa/fa prediabetic model assessed as body weight at 1 mg/kg, po qd for 29 days measured on day 29 post last dose (reference value: 533 +/- 10 g); assay type: organism-based; details: in vivo, 696 h
Rattus norvegicus [10] = assay: Effect on NDUFA12 gene expression in epididymal white adipose tissue of Zucker rat sub-chronic fa/fa prediabetic model at 10 mg/kg, po qd for 15 days by microarray analysis relative to control; assay type: functional
[11] = AUC (0 to 24 hrs) in ob/ob mouse at 18 mg/kg administered via oral gavage by LC-MS analysis; assay type: ADME, organism-based; set-up: dose 18 mg/kg, time < 24 hr, route oral; details: in vivo
Rattus norvegicus [12] = assay: Effect on UCP3 gene expression in epididymal white adipose tissue of Zucker rat sub-chronic fa/fa prediabetic model at 10 mg/kg, po qd for 15 days by microarray analysis relative to control; assay type: functional
Rattus norvegicus [13] = assay: Toxicity in Zucker rat sub-chronic fa/fa prediabetic model assessed as insulin level per gram pancreas at 1 mg/kg, po qd for 31 days measured on day 32 (reference value: 55.2 +/- 5.5 ug); assay type: organism-based; details: in vivo, 744 h
Rattus norvegicus [14] = assay: Toxicity in Zucker rat sub-chronic fa/fa prediabetic model assessed as serum creatinine level at 1 mg/kg, po qd for 31 days measured on day 32 (reference value: 0.71 +/- 0.07 mg/dl); assay type: organism-based; details: in vivo, 744 h
Rattus norvegicus [15] = assay: Toxicity in Zucker rat sub-chronic fa/fa prediabetic model assessed as triglyceride level per gram liver at 10 mg/kg, po qd for 31 days measured on day 32 (reference value: 163.4 +/- 8.3 mg); assay type: organism-based; details: in vivo, 744 h
[16] = target: Peroxisome proliferator-activated receptor delta (Homo sapiens, UniProt Q03181); assay: Antagonist activity at recombinant GST-tagged human PPARdelta LBD assessed as inhibition of GW0742-induced fluorescein-labeled coactivator peptide recruitment preincubated with enzyme followed by coactivator addition by LanthaScreen TR-FRET assay
Rattus norvegicus [17] = assay: Toxicity in […] chronic ob/ob model assessed as serum creatinine level at 3 mg/kg, po qd for 31 days measured on day 32 (reference value: 0.55 +/- 0.018 mg/dl); assay type: organism-based; details: in vivo, 744 h
[18] = target: Retinoic acid receptor beta (Homo sapiens, UniProt P10826); assay: Agonist activity at recombinant GST-tagged human RARbeta LBD assessed as fluorescein-labeled coactivator peptide recruitment preincubated with enzyme followed by coactivator addition by LanthaScreen TR-FRET assay
Rattus norvegicus [19] = assay: Toxicity in Zucker rat sub-chronic fa/fa prediabetic model assessed as epididymal white adipose tissue weight at 50 mg/kg, po qd for 31 days measured on day 32 (reference value: 13.9 +/- 0.6 g); assay type: organism-based; details: in vivo, 744 h
Rattus norvegicus [20] = assay: Effect on NFKBIB gene expression in epididymal white adipose tissue of Zucker rat sub-chronic fa/fa prediabetic model at 10 mg/kg, po qd for 15 days by microarray analysis relative to control; assay type: functional
Rattus norvegicus [21] = assay: Effect on PRKCD gene expression in epididymal white adipose tissue of Zucker rat sub-chronic fa/fa prediabetic model at 10 mg/kg, po qd for 15 days by microarray analysis relative to control; assay type: functional
[22] = Cmax in Zucker rat sub-chronic fa/fa prediabetic model at 1 mg/kg, po qd measured on day 1 post dose; assay type: ADME, organism-based; set-up: dose 1 mg/kg, route oral; details: in vivo
Rattus norvegicus [23] = assay: Effect on YWHAG gene expression in epididymal white adipose tissue of Zucker rat sub-chronic fa/fa prediabetic model at 10 mg/kg, po qd for 15 days by microarray analysis relative to control; assay type: functional
Rattus norvegicus [24] = assay: Effect on HMGCS1 gene expression in epididymal white adipose tissue of Zucker rat sub-chronic fa/fa prediabetic model at 10 mg/kg, po qd for 15 days by microarray analysis relative to control; assay type: functional
Rattus norvegicus [25] = assay: Toxicity in […] chronic ob/ob model assessed as serum triglyceride level at 3 mg/kg, po qd for 31 days measured on day 32 (reference value: 329 +/- 36 mg/dl); assay type: organism-based; details: in vivo, 744 h
Rattus norvegicus [26] = assay: Effect on HLA-DRB1 gene expression in epididymal white adipose tissue of Zucker rat sub-chronic fa/fa prediabetic model at 10 mg/kg, po qd for 15 days by microarray analysis relative to control; assay type: functional
Rattus norvegicus [27] = assay: Toxicity in Zucker rat sub-chronic fa/fa prediabetic model assessed as serum AST level at 50 mg/kg, po qd for 31 days measured on day 32 (reference value: 187 +/- 37 U/L); assay type: organism-based; details: in vivo, 744 h
[28] = AUC (0 to 24 hrs) in […] model at 3 mg/kg, po qd measured on day 1 post dose; assay type: ADME, organism-based; set-up: dose 3 mg/kg, time < 24 hr, route oral; details: in vivo
Rattus norvegicus [29] = assay: Toxicity in Zucker rat sub-chronic fa/fa prediabetic model assessed as liver weight at 50 mg/kg, po qd for 31 days measured on day 32 (reference value: 28 +/- 1.6 g); assay type: organism-based; details: in vivo, 744 h
Rattus norvegicus [30] = assay: Toxicity in Zucker rat sub-chronic fa/fa prediabetic model assessed as increase in body weight at 10 mg/kg, po qd during 10 days study; assay type: organism-based; details: in vivo, 240 h
Rattus norvegicus [31] = assay: Effect on PRDX3 gene expression in epididymal white adipose tissue of Zucker rat sub-chronic fa/fa prediabetic model at 10 mg/kg, po qd for 15 days by microarray analysis relative to control; assay type: functional
Rattus norvegicus [32] = assay: Effect on HSD17B4 gene expression in epididymal white adipose tissue of Zucker rat sub-chronic fa/fa prediabetic model at 10 mg/kg, po qd for 15 days by microarray analysis relative to control; assay type: functional
Rattus norvegicus [33] = assay: Effect on GNPAT gene expression in epididymal white adipose tissue of Zucker rat sub-chronic fa/fa prediabetic model at 10 mg/kg, po qd for 15 days by microarray analysis relative to control; assay type: functional

Chain of Peroxisome proliferator-activated receptor delta (Q03181 whole entry, the tested form may be a part): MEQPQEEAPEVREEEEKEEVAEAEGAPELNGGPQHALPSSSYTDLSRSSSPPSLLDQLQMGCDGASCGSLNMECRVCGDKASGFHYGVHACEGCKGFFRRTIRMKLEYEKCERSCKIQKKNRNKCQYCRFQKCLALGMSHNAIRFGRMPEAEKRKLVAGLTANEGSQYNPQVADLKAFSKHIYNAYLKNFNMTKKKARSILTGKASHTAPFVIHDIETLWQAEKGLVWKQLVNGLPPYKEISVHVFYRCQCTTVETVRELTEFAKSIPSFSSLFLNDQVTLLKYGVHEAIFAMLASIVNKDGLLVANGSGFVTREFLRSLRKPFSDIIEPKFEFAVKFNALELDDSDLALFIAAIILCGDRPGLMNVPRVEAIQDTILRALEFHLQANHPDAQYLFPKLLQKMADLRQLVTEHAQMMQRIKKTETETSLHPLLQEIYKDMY
Chain of Retinoic acid receptor beta (P10826 whole entry, the tested form may be a part): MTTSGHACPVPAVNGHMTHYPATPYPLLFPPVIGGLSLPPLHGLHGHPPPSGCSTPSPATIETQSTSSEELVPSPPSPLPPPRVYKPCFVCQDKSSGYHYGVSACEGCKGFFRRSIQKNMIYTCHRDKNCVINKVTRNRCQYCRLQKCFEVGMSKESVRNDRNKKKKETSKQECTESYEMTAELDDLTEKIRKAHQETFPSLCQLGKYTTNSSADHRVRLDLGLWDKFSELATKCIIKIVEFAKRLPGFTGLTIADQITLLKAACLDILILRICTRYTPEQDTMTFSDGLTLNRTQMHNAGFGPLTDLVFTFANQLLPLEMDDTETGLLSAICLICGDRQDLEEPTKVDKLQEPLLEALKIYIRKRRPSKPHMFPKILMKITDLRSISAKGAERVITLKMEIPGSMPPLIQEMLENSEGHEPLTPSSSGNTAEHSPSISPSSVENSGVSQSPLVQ

SMILES: CN1CC[C@@H](N2C(=O)S/C(=C\c3ccc4c(cnn4Cc4ccc(Cl)cc4C(F)(F)F)c3)C2=O)[C@H](F)C1
- fold change (FC) (Rattus norvegicus [1]): 1.561
- fold change (FC) (Rattus norvegicus [2]): 1.275
- AUC (Rattus norvegicus [3]): 16.6 ng·h/mL
- fold change (FC) (Rattus norvegicus [4]): -1.216
- fold change (FC) (Rattus norvegicus [5]): 2.352
- Activity (Rattus norvegicus [6]): 138 mg/dL
- Activity (Rattus norvegicus [7]): 331.3 mg/dL
- Activity (Rattus norvegicus [8]): 159 U/L
- Activity (Rattus norvegicus [9]): 525 g
- fold change (FC) (Rattus norvegicus [10]): 1.252
- AUC(0-t) at 24 h [11]: 6230 ng·h/mL
- fold change (FC) (Rattus norvegicus [12]): 2.305
- Activity (Rattus norvegicus [13]): 72.7 µg
- Activity (Rattus norvegicus [14]): 0.66 mg/dL
- Activity (Rattus norvegicus [15]): 93 mg
- IC50 [16]: > 10 µM
- Activity (Rattus norvegicus [17]): 0.5 mg/dL
- EC50 [18]: > 10 µM
- Activity (Rattus norvegicus [19]): 19.3 g
- fold change (FC) (Rattus norvegicus [20]): 1.31
- fold change (FC) (Rattus norvegicus [21]): -1.615
- Cmax [22]: 262 ng/mL
- fold change (FC) (Rattus norvegicus [23]): 1.255
- fold change (FC) (Rattus norvegicus [24]): -1.387
- Activity (Rattus norvegicus [25]): 223 mg/dL
- fold change (FC) (Rattus norvegicus [26]): -1.334
- Activity (Rattus norvegicus [27]): 87 U/L
- AUC(0-t) at 24 h [28]: 1400 ng·h/mL
- Activity (Rattus norvegicus [29]): 17.8 g
- Activity (Rattus norvegicus [30]): Non-Toxic
- fold change (FC) (Rattus norvegicus [31]): 1.559
- fold change (FC) (Rattus norvegicus [32]): 1.226
- fold change (FC) (Rattus norvegicus [33]): 1.212
